For 32 compounds, GI50 and TGI results are on record in PubChem BioAssay (NCI).

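Each compound was tested at five concentrations against cells in 96-well plates for 48 hours. GI50 = concentration required for 50% inhibition of growth. TGI: total growth inhibition.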

One assay deals with NCI-H226 lung. Description: growth of human tumour cells (NCI), 48 h.
Regarding `COc1cccc(/C=N/[N-]C(=O)c2ccncc2)c1[O-].[Cu+2].[OH3+]`, the GI50 is more than 100 µM and the TGI was more than 100 µM. The compound `COc1ccc(C(O)c2nccn2C)c(OC)c1` (stereo unspecified) gave a TGI of more than 100 µM.

`CCc1c(OC(C)=O)c2c(NC3OC(COC(C)=O)C(OC(C)=O)C(OC(C)=O)C3OC(C)=O)nc(OC)nc2oc1=O` (stereo unspecified) yielded a TGI of more than 100 µM. The compound `O=C(NC(=O)c1cn(CCNCCO)c(=O)[nH]c1=O)OCc1ccccc1` returned a TGI of more than 100 µM. The same measure, in the same setting: then `O=[N+]([O-])c1ccc(-n2nnc(C3=NCCN3)c2-c2ccc(Cl)cc2)cc1`, with more than 100 µM.

For the compound `CCC1C2C=CC(CC2)N1S(=O)(=O)c1ccc(C)cc1` (stereo unspecified), the TGI stood at 33.9 µM. Still for that read-out and setting: the value for `CCOc1ccc(N2C(=O)/C(=C/c3ccc(N(CCC#N)CCC#N)cc3)N=C2c2cc([N+](=O)[O-])ccc2Cl)cc1` was more than 100 µM; that for `COc1ccc(-c2cc(-c3ccccc3)c(C#N)c(=O)n2C2OC(CO)C(O)C(O)C2O)cc1` (stereo unspecified) was more than 100 µM; that for `CCOC(=O)C1(c2ccccc2)CCC(=O)CC1` was more than 100 µM. Still for that read-out and setting: then `O=C(N/N=C1/C(=O)N(c2ccc(Cl)cc2Cl)C(=O)C(=O)C1c1nc2ccccc2o1)c1ccccc1O` (stereo unspecified), with more than 100 µM; and `CC(=O)O[C@H]1CCC2[C@@H]3CCC4=C(O)c5nocc5C[C@]4(C)C3CC[C@@]21C` (stereo partly specified), with more than 100 µM; and `O=C(O)CSc1n[nH]c(-c2ccccc2)n1`, with more than 100 µM. Regarding `O=c1cc2oc3cc(O)c(O)cc3c(-c3ccccc3O)c-2cc1O`, the GI50 was 14.4 µM and the TGI was more than 100 µM.

With `CCCCCCC[CH2][Sn]1([CH2]CCCCCCC)[O]C(=O)c2cccnc2[S]1`, the GI50 is more than 100 µM and the TGI is more than 100 µM. In turn, `O=C1[C@@H]2C3c4ccccc4C([C@@H]2C(=O)N1c1ccccc1)S3(=O)=O` had a TGI of more than 100 µM. The same measure, in the same setting: the value for `COc1ccc(/C(=N\NC(=O)C(N)=O)C(c2ccc(OC)cc2)C2(O)C(=O)Nc3c(Cl)cccc32)cc1` (stereo unspecified) was more than 100 µM; that for `Cc1ccc(S(=O)(=O)N/N=C/c2oc(-c3ccncc3)c(-c3ccncc3)c2[N+](=O)[O-])cc1` was more than 100 µM; that for `CCc1cccc(C)c1NC(=O)C(=O)Cc1nc2ccccc2o1` was more than 100 µM. The compound `CCOc1ccc2c(c1)[n+]([O-])c(-c1ccccc1Cl)c(N)[n+]2[O-]` yielded a TGI of more than 100 µM. On the same count and under the same terms, the value for `O=C1c2ccccc2C2(O)c3cc4ccccc4cc3OC12O` (stereo unspecified) was more than 100 µM; that for `CN(C)c1c([O-])c(=[N+](C)C)c1=O` was more than 100 µM.

The next assay deals with IGROV1 ovarian. Description: growth of human tumour cells (NCI), 48 h.
Take `COC(=O)[C@]1(C)CCCC2(C)C1CC[C@H]1C=C(C)[C@H]3CCC12C3` (stereo partly specified): the TGI is more than 100 µM. `O=C(Nc1cc(Cl)ccc1Cl)c1cc2cccc(Cl)c2oc1=O` had a TGI of more than 100 µM. `O=c1n(-c2ccccc2)c(=O)n2n1C1C=CC2C2C(C1)C2(Cl)Cl` (stereo unspecified) returned a TGI of more than 100 µM. On the same count and under the same terms, then `Cc1ccc(Cn2c(C)nc3c2C(=O)c2ccccc2C3=O)cc1`, with more than 100 µM; and `CCOC(=O)C(C)(C)Oc1ccc2c(C)c(-c3ccc(Cl)cc3)c(=O)oc2c1`, with more than 100 µM; and `Cc1c(Cl)cccc1N1C(=O)C(Cl)=C(Cl)C1=O`, with more than 100 µM. On to `COc1ccc(NC(=O)/C(N=O)=C(/C)O)cc1`, for which the TGI was more than 100 µM.

On to `COc1cccc(/C=N/[N-]C(=O)c2ccncc2)c1[O-].[Cu+2].[OH3+]`, for which the GI50 was 38.7 µM and the TGI was more than 100 µM. As to `COc1ccc(C(O)c2nccn2C)c(OC)c1` (stereo unspecified), the TGI was more than 100 µM. `C1CSCCSCCS1` came in with a TGI of more than 100 µM. On the same count and under the same terms, then `CCc1c(OC(C)=O)c2c(NC3OC(COC(C)=O)C(OC(C)=O)C(OC(C)=O)C3OC(C)=O)nc(OC)nc2oc1=O` (stereo unspecified), with more than 100 µM; and `O=C(NC(=O)c1cn(CCNCCO)c(=O)[nH]c1=O)OCc1ccccc1`, with more than 100 µM. On the same count and under the same terms, then `O=[N+]([O-])c1ccc(-n2nnc(C3=NCCN3)c2-c2ccc(Cl)cc2)cc1`, with more than 100 µM; and `CCSc1[nH]c(Nc2nc(-c3ccccc3)n(-c3ccccc3)n2)c(C(N)=O)c1C(N)=O`, with more than 10 µM. With `COc1ccc(-c2cc(-c3ccccc3)c(C#N)c(=O)n2C2OC(CO)C(O)C(O)C2O)cc1` (stereo unspecified), the TGI was more than 100 µM.

Compound `CCOC(=O)C1(c2ccccc2)CCC(=O)CC1` yielded a TGI of more than 100 µM. The compound `O=C(N/N=C1/C(=O)N(c2ccc(Cl)cc2Cl)C(=O)C(=O)C1c1nc2ccccc2o1)c1ccccc1O` (stereo unspecified) came in with a TGI of more than 100 µM. Turning to `CC(=O)O[C@H]1CCC2[C@@H]3CCC4=C(O)c5nocc5C[C@]4(C)C3CC[C@@]21C` (stereo partly specified), the TGI is more than 100 µM. On the same count and under the same terms, the value for `O=C(O)CSc1n[nH]c(-c2ccccc2)n1` was more than 100 µM. In the case of `O=c1cc2oc3cc(O)c(O)cc3c(-c3ccccc3O)c-2cc1O`, the GI50 was 6.73 µM and the TGI was more than 100 µM. The corresponding values for `CCCCCCC[CH2][Sn]1([CH2]CCCCCCC)[O]C(=O)c2cccnc2[S]1` are more than 100 µM and more than 100 µM. For the compound `O=C1[C@@H]2C3c4ccccc4C([C@@H]2C(=O)N1c1ccccc1)S3(=O)=O`, the TGI was more than 100 µM.

Compound `COc1ccc(/C(=N\NC(=O)C(N)=O)C(c2ccc(OC)cc2)C2(O)C(=O)Nc3c(Cl)cccc32)cc1` (stereo unspecified) gave a TGI of more than 100 µM. Same read-out and setting: the value for `Cc1ccc(S(=O)(=O)N/N=C/c2oc(-c3ccncc3)c(-c3ccncc3)c2[N+](=O)[O-])cc1` was more than 100 µM. As for `CCc1cccc(C)c1NC(=O)C(=O)Cc1nc2ccccc2o1`, the TGI was more than 100 µM. On the same count and under the same terms, the value for `O=C(O)[C@H](NS(=O)(=O)c1ccc2ccccc2c1)c1ccccc1` was more than 100 µM; that for `CCOc1ccc2c(c1)[n+]([O-])c(-c1ccccc1Cl)c(N)[n+]2[O-]` was more than 100 µM. On to `O=C1c2ccccc2C2(O)c3cc4ccccc4cc3OC12O` (stereo unspecified), for which the TGI was more than 100 µM. Still for that read-out and setting: then `CN(C)c1c([O-])c(=[N+](C)C)c1=O`, with more than 100 µM.

In the next assay the test system is SF-539 CNS. As to the kind of experiment: growth of human tumour cells (NCI), 48 h.
As to `c1ccc(SC2CCSc3ccccc3C2Sc2ccccc2)cc1` (stereo unspecified), the TGI was more than 100 µM. Same read-out and setting: the value for `COC(=O)[C@]1(C)CCCC2(C)C1CC[C@H]1C=C(C)[C@H]3CCC12C3` (stereo partly specified) was more than 100 µM; that for `O=C(Nc1cc(Cl)ccc1Cl)c1cc2cccc(Cl)c2oc1=O` was more than 100 µM; that for `O=c1n(-c2ccccc2)c(=O)n2n1C1C=CC2C2C(C1)C2(Cl)Cl` (stereo unspecified) was more than 100 µM.

With `Cc1ccc(Cn2c(C)nc3c2C(=O)c2ccccc2C3=O)cc1`, the TGI is 18.7 µM.
